Measurements taken from patent US6465228B1, “Levodione reductase” (Roche Vitamins, Inc., priority 1999, dated 2002).
“Also recorded” adds a separate entry of the source. Where two headings read alike, the source gives them in different places.

Legend:
[1] = test system: Corynebacterium aquaticum AKU611; test: Biolog System assimilation of carbon sources; assay type: cell-based; conditions: 96-well plate, BUGM+B medium, 24 hours at 28° C.
From the text: Each well contained one of the 96 types of carbon sources in BUGM+B medium (Biolog Universal Growth Media+Blood) (Biolog Inc.).

levodione reductase [2] = target: T1, levodione reductase (Leifsonia aquatica, UniProt Q9LBG2); assay type: biochemical, Corynebacterium aquaticum AKU611
T1 construct: The LR is isolated and purified from the cell-free extract of disrupted cells; made in house; host or cells: Corynebacterium aquaticum AKU611 (FERM BP-6448); This is the natural producer and there was no recombinant expression; The enzyme was purified by ammonium sulfate precipitation and DEAE-Sephacel, alkyl Superose and MONO Q chromatography
T1 sequence (Q9LBG2 1-267): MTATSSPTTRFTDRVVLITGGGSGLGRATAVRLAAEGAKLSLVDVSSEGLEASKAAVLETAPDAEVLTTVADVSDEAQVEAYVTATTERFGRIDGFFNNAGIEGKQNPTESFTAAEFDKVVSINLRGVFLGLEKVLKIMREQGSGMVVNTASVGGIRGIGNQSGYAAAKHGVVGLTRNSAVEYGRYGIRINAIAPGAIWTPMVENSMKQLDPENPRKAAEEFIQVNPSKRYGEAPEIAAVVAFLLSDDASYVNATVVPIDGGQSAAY
Description: (§1) A basal reaction mixture having a total volume of 500 μl includes 100 μl of 1 M potassium phosphate buffer (pH 7.0), 20 μl of 8 mM NADH in 0.2 mM KOH, 10-40 μl of the enzyme solution (i.e., levodione reductase), and water up to a total of 500 μl . This reaction mixture was incubated for 1 minute at 37 ° C. Then, 2 μl of 0.5 M levodione solution were added to give a final concentration of 2 mM, and the whole mixture was incubated for 1 minute at 37 ° C. The levodione reductase enzyme activity was monitored with the decrease of the absorbance of NADH at 340 nm.

levodione reductase [3] = target: T1, levodione reductase; test: Substrate specificity, standard LR enzyme assay (NADH decrease at 340 nm); assay type: biochemical, Corynebacterium aquaticum AKU611; conditions: for Enzyme Activity: substrate 2 mM final concentration instead of levodione
Description: as §1
In the present invention, one unit of the levodione reductase enzyme activity is defined as the amount of the levodione reductase which catalyzes the oxidation of 1 μmole of NADH per minute.
The substrate specificity of the enzyme was determined using the same enzyme assay method as described under 1, except that various solutions containing different substrates (2 mM final concentration in the reaction mixture) were used instead of levodione.

levodione reductase [4] = target: T1, levodione reductase; test: Co-factor requirement / identification of reaction product; assay type: biochemical, Corynebacterium aquaticum AKU611; conditions: for function as co-factor / electron donor: reduction of levodione to actinol
Description: […] To this reaction mixture, 10 Al of a 0.5 M levodione solution were added five times at 6 minute intervals. The reaction mixture was incubated for a further 5 minutes, and extracted with 1 ml of ethyl acetate. The extract was analyzed by gas chromatography (column: HR-20M (Shinwa, Kyoto, Japan) 0.25 mm Ø×30 m), column temperature: 160° C. (constant), injector temperature: 250° C., carrier gas: He (about 1 ml/min.). As a result, the product was identified as being actinol in comparison with a standard sample of actinol.

[5] = Table 4-1, + 3 mM NaCl, metal 100 mM
[6] = Table 4-1, + 3 mM NaCl, metal 200 mM
[7] = Table 4-1, + 3 mM NaCl, metal 400 mM
[8] = Table 4-1, + 3 mM NaCl, metal 800 mM
[9] = Table 4-1, + 3 mM NaCl, metal 1600 mM
[10] = Table 4-1, + 3 mM NaCl, metal 1800 mM
[11] = Table 4-1, + 3 mM NaCl, metal 2000 mM
[12] = Table 4-1, + 3 mM NaCl, metal 2500 mM
[13] = Table 4-1, + 3 mM NaCl, metal 3000 mM

OC[C@H]1O[C@H](O[C@H]2[C@H](O)[C@@H](O)[C@@H](O[C@H]3[C@H](O)[C@@H](O)C(O)O[C@@H]3CO)O[C@@H]2CO)[C@H](O)[C@@H](O)[C@@H]1O (mixture of isomers) [C4, Maltotriitrose]
Assimilation [1]: +

O=P(O)(O)OCC(O)CO (racemic) [H12, DL-α-glycerol phosphate]
Assimilation [1]: −

OC[C@H]1O[C@@H]2O[C@H]3[C@H](O)[C@@H](O)[C@@H](O[C@H]4[C@H](O)[C@@H](O)[C@@H](O[C@H]5[C@H](O)[C@@H](O)[C@@H](O[C@H]6[C@H](O)[C@@H](O)[C@@H](O[C@H]7[C@H](O)[C@@H](O)[C@@H](O[C@H]1[C@H](O)[C@H]2O)O[C@@H]7CO)O[C@@H]6CO)O[C@@H]5CO)O[C@@H]4CO)O[C@@H]3CO [A2, α-cyclodextrin]
Assimilation [1]: −

OC[C@H]1O[C@@H]2O[C@H]3[C@H](O)[C@@H](O)[C@@H](O[C@H]4[C@H](O)[C@@H](O)[C@@H](O[C@H]5[C@H](O)[C@@H](O)[C@@H](O[C@H]6[C@H](O)[C@@H](O)[C@@H](O[C@H]7[C@H](O)[C@@H](O)[C@@H](O[C@H]8[C@H](O)[C@@H](O)[C@@H](O[C@H]1[C@H](O)[C@H]2O)O[C@@H]8CO)O[C@@H]7CO)O[C@@H]6CO)O[C@@H]5CO)O[C@@H]4CO)O[C@@H]3CO [A3, β-cyclodextrin]
Assimilation [1]: −

OC[C@@H](O)C(O)[C@H](O)CO [B2, D-arabitol]
Assimilation [1]: +

O[C@H]1[C@H](O)[C@@H](O)[C@H](O)[C@@H](O)[C@H]1O [B12, m-inositol]
Assimilation [1]: −

OC[C@H]1O[C@@](CO)(O[C@H]2O[C@H](CO)[C@@H](O)[C@H](O)[C@H]2O)[C@@H](O[C@H]2O[C@H](CO)[C@@H](O)[C@H](O)[C@H]2O)[C@@H]1O [C7, D-melezitose]
Assimilation [1]: −

OC[C@H]1O[C@H](OC[C@H]2OC(O)[C@H](O)[C@@H](O)[C@@H]2O)[C@H](O)[C@@H](O)[C@H]1O (stereo partly drawn) [C8, D-melibiose]
Assimilation [1]: +

COC1OC(CO)C(O)C(O)C1O [C9, α-methyl-D-galactoside]
Assimilation [1]: −

COC1OC(CO)C(O)C(O)C1O [C10, α-methyl-D-galactoside]
Assimilation [1]: −

CO[C@H]1O[C@H](CO)[C@@H](O)[C@H](O)[C@H]1O [C12, α-methyl-D-glucoside]
Assimilation [1]: −

[Cl-].[Cs+] [CsCl]
increase of enzyme activity (levodione reductase [2]; 1.8 M CsCl): about 250 fold | Relative Activity (levodione reductase [2]; [5]): 5.9% | Relative Activity (levodione reductase [2]; [6]): 14.3% | Relative Activity (levodione reductase [2]; [7]): 28.3% | Relative Activity (levodione reductase [2]; [8]): 48.1% | Relative Activity (levodione reductase [2]; [9]): 71.4% | Relative Activity (levodione reductase [2]; [10]): 100% | Relative Activity (levodione reductase [2]; [11]): 86.8% | Relative Activity (levodione reductase [2]; [12]): 88.4% | Relative Activity (levodione reductase [2]; [13]): 88.0%

O=C1CCCCC1 [Cyclohexanone]
Enzyme Activity (levodione reductase [3]): Not detected (ND)

CO[C@@H]1O[C@H](CO)[C@@H](O)[C@H](O)[C@H]1O [D1, β-methyl-D-glucoside]
Assimilation [1]: −

COC1OC(CO)C(O)C(O)C1O [D2, α-methyl-D-mannoside]
Assimilation [1]: −

OC[C@H]1O[C@H](OC[C@H]2OC(O)(CO)[C@@H](O)[C@@H]2O)[C@H](O)[C@@H](O)[C@@H]1O (stereo partly drawn) [D3, Palatinose]
Assimilation [1]: +

OC[C@H]1O[C@H](OC[C@H]2O[C@H](O[C@]3(CO)O[C@H](CO)[C@@H](O)[C@@H]3O)[C@H](O)[C@@H](O)[C@@H]2O)[C@H](O)[C@@H](O)[C@H]1O [D5, D-raffinose]
Assimilation [1]: +

OC[C@@]12OC[C@@H](O1)[C@@H](O)[C@@H](O)[C@@H]2O [D9, Sedoheputulosan]
Assimilation [1]: −

OC[C@H]1O[C@H](OC[C@H]2O[C@H](OC[C@H]3O[C@H](O[C@]4(CO)O[C@H](CO)[C@@H](O)[C@@H]4O)[C@H](O)[C@@H](O)[C@@H]3O)[C@H](O)[C@@H](O)[C@H]2O)[C@H](O)[C@@H](O)[C@H]1O [D11, Stachyose]
Assimilation [1]: +

OC[C@H]1O[C@H](O[C@H]2O[C@H](CO)[C@@H](O)[C@H](O)[C@H]2O)[C@H](O)[C@@H](O)[C@@H]1O [E2, D-trehalose]
Assimilation [1]: −

O=C(CO)[C@@H](O[C@H]1O[C@H](CO)[C@@H](O)[C@H](O)[C@H]1O)[C@H](O)[C@H](O)CO [E3, Turanose]
Assimilation [1]: +

C[C@H](O)C(=O)O [F3, L-lactic acid]
Assimilation [1]: −

O=C(O)C[C@@H](O)C(=O)O [F4, D-malic acid]
Assimilation [1]: −

O=C(O)C[C@H](O)C(=O)O [F5, L-malic acid]
Assimilation [1]: −

O=C1CC[C@@H](C(=O)O)N1 [G8, L-pyloglutamic acid]
Assimilation [1]: −

NCCCCN [G10, Putrscine]
Assimilation [1]: −

O=P(O)(O)O[C@H]1O[C@H](CO)[C@@H](O)[C@H](O)[C@H]1O [H10, Glucose-1-phosphate]
Assimilation [1]: −

[Cl-].[K+] [KCl]
Relative Activity (levodione reductase [2]; Table 4-2, metal 200 mM): 11.5% | Relative Activity (levodione reductase [2]; Table 4-2, metal 400 mM): 22.2% | Relative Activity (levodione reductase [2]; Table 4-2, metal 800 mM): 40.5% | Relative Activity (levodione reductase [2]; Table 4-2, metal 1600 mM): 45.3% | Relative Activity (levodione reductase [2]; Table 4-2, metal 1800 mM): 33.5% | Relative Activity (levodione reductase [2]; Table 4-2, metal 2000 mM): 28.4% | Relative Activity (levodione reductase [2]; Table 4-2, metal 2500 mM): 25.9% | Relative Activity (levodione reductase [2]; Table 4-2, metal 3000 mM): 25.2%

C[C@@H]1CC(=O)CC(C)(C)C1=O [Levodione, (6R)-2,2,6-trimethylcyclohexane-1,4-dione]
Enzyme Activity (levodione reductase [3]): 5.66 unit/ml | substrate specificity of the enzyme (levodione reductase [3]; substrates 2 mM): the only substrate for which the enzyme exhibited activity

NC(=O)C1=CN([C@@H]2O[C@H](COP(=O)(O)OP(=O)(O)OC[C@H]3O[C@@H](n4cnc5c(N)ncnc54)[C@H](O)[C@@H]3O)[C@@H](O)[C@H]2O)C=CC1 [NADH]
function as co-factor / electron donor (levodione reductase [4]): could serve as a co-factor

NC(=O)C1=CN([C@@H]2O[C@H](COP(=O)(O)OP(=O)(O)OC[C@H]3O[C@@H](n4cnc5c(N)ncnc54)[C@H](OP(=O)(O)O)[C@@H]3O)[C@@H](O)[C@H]2O)C=CC1 [NADPH]
actinol detected by gas chromatography (levodione reductase [4]; NADH replaced with NADPH, 30° C.): only a trace amount of actinol was detected | function as co-factor / electron donor (levodione reductase [4]): does not work as an electron donor; also recorded: could not

Cl.N [NH4Cl]
Relative Activity (levodione reductase [2]; Table 4-2, metal 100 mM): 6.4% | Relative Activity (levodione reductase [2]; Table 4-2, metal 200 mM): 21.3% | Relative Activity (levodione reductase [2]; Table 4-2, metal 400 mM): 39.3% | Relative Activity (levodione reductase [2]; Table 4-2, metal 800 mM): 67.1% | Relative Activity (levodione reductase [2]; Table 4-2, metal 1600 mM): 100% | Relative Activity (levodione reductase [2]; Table 4-2, metal 1800 mM): 75.3%

[Cl-].[Na+] [NaCl]
Relative Activity (levodione reductase [2]; Table 4-1, Tris-HCl pH 7.5, metal 3 mM): 0.4% | Relative Activity (levodione reductase [2]; Table 4-2, metal 100 mM): 4.2% | Relative Activity (levodione reductase [2]; Table 4-2, metal 200 mM): 7.7% | Relative Activity (levodione reductase [2]; Table 4-2, metal 400 mM): 19.7% | Relative Activity (levodione reductase [2]; Table 4-2, metal 800 mM): 35.9% | Relative Activity (levodione reductase [2]; Table 4-2, metal 1600 mM): 75.3% | Relative Activity (levodione reductase [2]; Table 4-2, metal 1800 mM): 62.8% | Relative Activity (levodione reductase [2]; Table 4-2, metal 2000 mM): 62.8% | Relative Activity (levodione reductase [2]; Table 4-2, metal 2500 mM): 53.9% | Relative Activity (levodione reductase [2]; Table 4-2, metal 3000 mM): 34.1%

[Cl-].[Rb+] [RbCl]
increase of enzyme activity (levodione reductase [2]; 3 M RbCl): about 250 fold | Relative Activity (levodione reductase [2]; [5]): 6.4% | Relative Activity (levodione reductase [2]; [6]): 7.5% | Relative Activity (levodione reductase [2]; [7]): 23.3% | Relative Activity (levodione reductase [2]; [8]): 32.6% | Relative Activity (levodione reductase [2]; [9]): 66.4% | Relative Activity (levodione reductase [2]; [10]): 65.1% | Relative Activity (levodione reductase [2]; [11]): 93.2% | Relative Activity (levodione reductase [2]; [12]): 93.3% | Relative Activity (levodione reductase [2]; [13]): 100%

Dextrin [A4]
Assimilation [1]: −

Glycogen [A5]
Assimilation [1]: −

Inulin [A6]
Assimilation [1]: −

Mannan [A7]
Assimilation [1]: −

TWEEN ® 40 [A8]
Assimilation [1]: +

TWEEN ® 80 [A9]
Assimilation [1]: +
